Values after ≈ are worked out from the molar mass of the structure shown.

A short description of the data set: Toxicity in brine shrimp. The format is organism-based. The conditions noted are these: artemia, in vivo; read-out: LD50 (the source's name).

Regarding `CCCCCC/C=C\CCC[C@@H](O)[C@H](N)CO`, the LC50 worked out at 9 µg/mL (≈ 37 µM).

The values are drawn from ChEMBL document CHEMBL1155554, “(2R,3R,7Z)-2-Aminotetradec-7-ene-1,3-diol, a new amino alcohol from the caribbean sponge Haliclona vansoesti” (J Nat Prod, 2000).
